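Briefly, cells in 96-well plates were exposed to five compound concentrations for 48 h, and endpoints were estimated by linear interpolation. GI50 marks 50% less growth.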 Active and inactive are the calls of the source. Rule as the data show it: active = GI50 up to about 1.1 µM and inactive = higher.
What was measured:
Test in all cases: NCI tumour cell line growth inhibition, 48 h
DU-145 = test system: DU-145
EKVX = test system: EKVX
HL-60 = test system: HL-60
HOP-92 = test system: HOP-92
M14 = test system: M14
MCF7 = test system: MCF7
MDA-MB-231 = test system: MDA-MB-231
MOLT-4 = test system: MOLT-4
Malme-3M = test system: Malme-3M
NCI-H23 = test system: NCI-H23
OVCAR-4 = test system: OVCAR-4
PC-3 = test system: PC-3
RPMI-8226 = test system: RPMI-8226
SF-295 = test system: SF-295
SN12C = test system: SN12C
SNB-75 = test system: SNB-75
SR = test system: SR
T47D = test system: T47D
UO-31 = test system: UO-31
HCC 2998 = test system: HCC 2998

Measured: GI50

C/C(=N\NC(=O)c1ccncc1)c1ccccc1Cl
inactive: DU-145 > 100 µM | EKVX > 100 µM | HL-60 > 100 µM | HOP-92 > 100 µM | M14 > 100 µM | MCF7 > 100 µM | MDA-MB-231 > 100 µM | MOLT-4 > 100 µM | Malme-3M > 100 µM | NCI-H23 > 100 µM | OVCAR-4 > 100 µM | PC-3 > 100 µM | RPMI-8226 79.6 µM | SF-295 > 100 µM | SN12C > 100 µM | SNB-75 > 100 µM | SR > 100 µM | T47D > 100 µM | UO-31 > 100 µM

C=C1C[C@H](O)[C@H]2C(C[Se]c3ccccc3)C(=O)O[C@@H]2[C@H]2[C@H](C)C(O)C[C@@H]12 (stereo not given in full)
inactive: DU-145 44.2 µM | EKVX 33.7 µM | HOP-92 29.3 µM | M14 31.5 µM | MCF7 > 100 µM | MDA-MB-231 14.8 µM | MOLT-4 31.6 µM | Malme-3M 40.6 µM | NCI-H23 15.7 µM | OVCAR-4 38.1 µM | PC-3 22.7 µM | RPMI-8226 23.9 µM | SF-295 75.9 µM | SN12C 21.8 µM | SNB-75 31.8 µM | SR 23.4 µM | T47D 28.3 µM | UO-31 22.8 µM

CN(C)c1ccc(/C=C(\C#N)C(N)=C(C#N)C#N)cc1
inactive: DU-145 > 100 µM | EKVX > 100 µM | HCC 2998 > 100 µM | HL-60 > 100 µM | HOP-92 > 100 µM | M14 30 µM | MCF7 > 100 µM | MDA-MB-231 > 100 µM | Malme-3M 32 µM | NCI-H23 > 100 µM | OVCAR-4 > 100 µM | PC-3 > 100 µM | SF-295 > 100 µM | SN12C > 100 µM | SR > 100 µM | T47D > 100 µM | UO-31 > 100 µM

O=C1CC2(CCN(CC3COc4ccccc4O3)CC2)C(=O)N1N1CCCCCC1 (stereo not given)
inactive: DU-145 32.7 µM | EKVX > 100 µM | HL-60 17.6 µM | HOP-92 87.3 µM | M14 69.3 µM | MCF7 37.2 µM | MDA-MB-231 > 100 µM | MOLT-4 20.7 µM | Malme-3M 94.4 µM | NCI-H23 16.9 µM | OVCAR-4 33.6 µM | PC-3 27.5 µM | RPMI-8226 59.8 µM | SF-295 71.1 µM | SN12C > 100 µM | SNB-75 76.4 µM | SR > 100 µM | T47D 33.7 µM | UO-31 > 100 µM

O=C(Cn1c2ccc(Br)cc2c2nc3ccccc3nc21)NNC(=O)NC1CCCCC1
inactive: DU-145 24.9 µM | EKVX 65.8 µM | HCC 2998 > 100 µM | M14 40.3 µM | MCF7 49 µM | MDA-MB-231 30.1 µM | MOLT-4 25.2 µM | Malme-3M 52.2 µM | NCI-H23 61.4 µM | OVCAR-4 13.8 µM | PC-3 37.7 µM | RPMI-8226 > 100 µM | SF-295 34.3 µM | SN12C 52.8 µM | SNB-75 23.2 µM | SR 31 µM | T47D 33 µM | UO-31 2.52 µM

Cn1c(=S)c2nc(SCCCc3ccccc3)[nH]c2n(C)c1=O
inactive: DU-145 36.1 µM | EKVX 13.7 µM | HL-60 18.2 µM | HOP-92 78.3 µM | M14 17.6 µM | MCF7 22.1 µM | MDA-MB-231 42.5 µM | MOLT-4 13.5 µM | Malme-3M 62.1 µM | NCI-H23 16.7 µM | OVCAR-4 13 µM | PC-3 36.8 µM | RPMI-8226 15.1 µM | SF-295 11.4 µM | SN12C 26.5 µM | SNB-75 22.6 µM | SR 4.85 µM | T47D 14.6 µM | UO-31 14.4 µM

O=[N+]([O-])c1ccc(-c2cn(-c3ccc(Cl)cc3)cn2)cc1
inactive: DU-145 > 100 µM | EKVX 32.7 µM | HCC 2998 > 100 µM | HL-60 > 100 µM | M14 > 100 µM | MCF7 71.6 µM | MDA-MB-231 27.2 µM | MOLT-4 > 100 µM | Malme-3M > 100 µM | NCI-H23 20.4 µM | PC-3 > 100 µM | RPMI-8226 89.5 µM | SF-295 18.7 µM | SN12C 41.3 µM | SNB-75 8.57 µM | SR > 100 µM | T47D 44.2 µM | UO-31 45 µM

Cc1ccc(C2(C)CC/C(=N/N=C3/CCC(C)(c4ccc(C)c(C)c4)c4cc(C)c(C)cc43)c3cc(C)c(C)cc32)cc1C (stereo not given)
inactive: DU-145 > 100 µM | EKVX > 100 µM | HL-60 > 100 µM | HOP-92 > 100 µM | M14 > 100 µM | MCF7 > 100 µM | MDA-MB-231 > 100 µM | MOLT-4 > 100 µM | Malme-3M > 100 µM | NCI-H23 > 100 µM | OVCAR-4 > 100 µM | PC-3 > 100 µM | RPMI-8226 > 100 µM | SF-295 > 100 µM | SN12C > 100 µM | SNB-75 > 100 µM | SR > 100 µM | T47D > 100 µM | UO-31 > 100 µM

CCOP(=O)(O)CN1CCNCCN(CP(=O)(O)OCC)CCNCC1
inactive: DU-145 > 100 µM | EKVX > 100 µM | HL-60 53 µM | HOP-92 > 100 µM | MCF7 > 100 µM | MDA-MB-231 > 100 µM | MOLT-4 > 100 µM | OVCAR-4 > 100 µM | PC-3 > 100 µM | RPMI-8226 > 100 µM | SF-295 > 100 µM | SN12C > 100 µM | SNB-75 > 100 µM | SR > 10 µM | T47D > 100 µM | UO-31 35.2 µM

COc1cc2c(c(OC)c1)[C@H](C)N(Cc1ccccc1)C(C)C2 (stereo not given in full)
inactive: DU-145 > 100 µM | EKVX > 100 µM | HCC 2998 33 µM | HL-60 4.88 µM | M14 17.7 µM | MCF7 42.2 µM | MDA-MB-231 36.3 µM | MOLT-4 22.7 µM | Malme-3M 62.4 µM | NCI-H23 95.3 µM | PC-3 > 100 µM | RPMI-8226 21.3 µM | SF-295 16.3 µM | SN12C 35.2 µM | SNB-75 41.1 µM | SR 25.8 µM | T47D 45.9 µM | UO-31 54.2 µM

CSc1c(C(=O)Nc2ccccc2)c(N)nn1-c1ccccc1
inactive: DU-145 > 100 µM | EKVX > 100 µM | HCC 2998 > 100 µM | HL-60 > 100 µM | M14 > 100 µM | MCF7 > 100 µM | MDA-MB-231 > 100 µM | MOLT-4 > 100 µM | Malme-3M > 100 µM | NCI-H23 > 100 µM | OVCAR-4 > 100 µM | PC-3 > 100 µM | RPMI-8226 > 100 µM | SN12C > 100 µM | SNB-75 > 100 µM | SR > 100 µM | T47D > 100 µM | UO-31 67.9 µM

COC(=O)[C@@]1(Cc2ccc(O)cc2)C[C@@H]2Cc3ccccc3N2N1
inactive: DU-145 > 100 µM | EKVX 64.7 µM | HOP-92 43.6 µM | M14 38.8 µM | MCF7 63.2 µM | MDA-MB-231 49.1 µM | MOLT-4 4.8 µM | Malme-3M 49 µM | NCI-H23 56.9 µM | OVCAR-4 > 100 µM | PC-3 34.5 µM | RPMI-8226 30.5 µM | SF-295 49.1 µM | SN12C 71 µM | SR 31.3 µM | T47D 23.5 µM | UO-31 75.7 µM

CN(C)CCCN1c2ccccc2CCc2cc([N+](=O)[O-])ccc21
inactive: DU-145 18.2 µM | EKVX 20.3 µM | HCC 2998 12.2 µM | M14 16.3 µM | MCF7 16.8 µM | MDA-MB-231 14.9 µM | MOLT-4 15.8 µM | Malme-3M 17.7 µM | NCI-H23 19 µM | OVCAR-4 17.7 µM | PC-3 16.7 µM | RPMI-8226 18 µM | SF-295 14.5 µM | SN12C 16.1 µM | SNB-75 12.9 µM | SR 18.7 µM | T47D 17.1 µM | UO-31 14.9 µM

COc1ccc2oc(=O)c3c(c2c1C)OC(C)(C)C=C3
inactive: DU-145 > 100 µM | EKVX > 100 µM | HCC 2998 > 100 µM | HL-60 > 100 µM | M14 > 100 µM | MCF7 > 100 µM | MDA-MB-231 > 100 µM | MOLT-4 44.1 µM | Malme-3M > 100 µM | NCI-H23 > 100 µM | PC-3 > 100 µM | RPMI-8226 > 100 µM | SF-295 > 100 µM | SN12C > 100 µM | SNB-75 > 100 µM | SR > 100 µM | T47D > 100 µM | UO-31 > 100 µM

O=C(OCc1ccccc1)N1CCCc2c(n(S(=O)(=O)c3ccccc3)c3ccccc23)C1
inactive: DU-145 > 100 µM | EKVX > 100 µM | HL-60 > 100 µM | HOP-92 > 100 µM | M14 > 100 µM | MCF7 > 100 µM | MDA-MB-231 > 100 µM | MOLT-4 > 100 µM | Malme-3M 57.9 µM | NCI-H23 > 100 µM | OVCAR-4 > 100 µM | PC-3 > 100 µM | RPMI-8226 > 100 µM | SF-295 36.6 µM | SN12C > 100 µM | SR 49.1 µM | T47D 14.2 µM | UO-31 > 100 µM

— ChEMBL document CHEMBL1201862, “PubChem BioAssay data set” (2004)
